Data published in patent US11518981B2, “Methods of enhancing engraftment activity of hematopoietic stem cells” (CHILDREN'S HOSPITAL MEDICAL CENTER, priority 2017, dated 2022).

Key:
Type in all cases: cell-based, human
CD34^+38^−90^+ HSCs [1] = test: ROS measurement (MITOSOX / CM-H2DCFDA) in HSCs; details: MITOSOX in CD34^+38^−90^+ cells
Procedure: Freshly isolated CD34^+ cells were used, wherever possible, and especially for 0 h controls. In some experiments cryopreserved CD34^+ cells were thawed for 4 hrs in IMDM containing cytokines, then washed and used for experiments. CD34^+ cells were transduced in X-VIVO 10™ (Lonza) medium supplemented with 2% human serum albumin (Baxter), recombinant human Flt-3 ligand (Flt3-L; 200 ng/mL), stem cell factor (SCF; 300 ng/mL), thrombopoietin (TPO; 100 ng/mL) (all cytokines obtained from PeproTech), and penicillin-streptomycin (ThermoFisher Scientific) on non-tissue culture treated plates coated with retronectin (4 μg/cm2, CH-296, Takara Bio Inc.). […]
PE-Cyanine 7 or APC-EFLUOR® 780, APC- or PE-conjugated antibodies directed to human CD34 (BD Biosciences 560710 or 555824), CD38 (eBiosciences, San Diego, Calif. 47-0389-42), CD90 (BioLegend 328120), CD45RA (eBiosciences 17-0458-42), CD49f (BD Biosciences 555736), CD45 (BD 55485 or Biolegend 304026), CD33 (eBiosciences 25-0338-42), CD19 (BD Biosciences 557791), or CD3 (BD Biosciences 555340). […] Total ROS and mitochondrial specific ROS were detected using 10 μM CM-H2DCFDA (ThermoFisher Scientific C6827) and 5 μM MITOSOX™ Red (Red Mitochondrial Superoxide Indicator) (ThermoFisher Scientific M36008) respectively, following manufacturer's instructions.

[2] = system: CD34^+38^−90^+45RA^−49f^+ HSCs; test: phenotypic HSC population by flow cytometry
Description: PE-Cyanine 7 or APC-EFLUOR® 780, APC- or PE-conjugated antibodies directed to human CD34 (BD Biosciences 560710 or 555824), CD38 (eBiosciences, San Diego, Calif. 47-0389-42), CD90 (BioLegend 328120), CD45RA (eBiosciences 17-0458-42), CD49f (BD Biosciences 555736), CD45 (BD 55485 or Biolegend 304026), CD33 (eBiosciences 25-0338-42), CD19 (BD Biosciences 557791), or CD3 (BD Biosciences 555340). Cells (˜5×10^5−1×10^6) were used to label with antibodies as per manufacturer instructions with the appropriate isotype controls. For phospho-flow, primary antibodies phospho-p38 (Thr180/Tyr182; 4092S), phospho-p44/42 MAPK (ERK ½) (Thr202/Tyr204; 4094S), and phospho-JNK (Thr183-Tyr185 PE conjugate; 5755S) (all from Cell Signaling) were used for staining overnight followed by wash and secondary antibody stain including Goat anti-Rabbit IgG (H+L) or Goat anti-Rabbit IgG (H+L) or Pacific Blue (P-10994) antibody. Apoptosis assay was performed using PE Annexin V Apoptosis Detection Kit (BD Biosciences 559763) according to the manufacturer's instructions. Total ROS and mitochondrial specific ROS were detected using 10 μM CM-H2DCFDA (ThermoFisher Scientific C6827) and 5 μM MITOSOX™ Red (Red Mitochondrial Superoxide Indicator) (ThermoFisher Scientific M36008) respectively, following manufacturer's instructions.

CD34^+38^−90^+ HSCs [3] = test: cell cycle analysis (Ki-67 / Hoechst) of HSCs
[4] = before the first HSC division in vitro (24 h)

Cc1ccc(-n2nc(C(C)(C)C)cc2NC(=O)Nc2ccc(OCCN3CCOCC3)c3ccccc23)cc1 [p38i, 1-[5-tert-butyl-2-(4-methylphenyl)pyrazol-3-yl]-3-[4-(2-morpholin-4-ylethoxy)naphthalen-1-yl]urea]
ROS levels in the HSC compartment (CD34^+38^−90^+ HSCs [1]): no difference | increased phenotypic HSC population ([2]; other than prolonged cultures): similar | phenotypic HSCs ([2]; prolonged cultures): higher | percentage of cells in the different phases of cell cycle (CD34^+38^−90^+ HSCs [3]; HSCs transduced when actively cycling (RV)): no difference | effect on increasing the G0 population (CD34^+38^−90^+ HSCs [3]; after HSCs progressed through cell cycle): lost | proportion of HSCs in the G0 quiescent phase (CD34^+38^−90^+ HSCs [3]; [4]): significantly increased | proportion of HSCs in the S-G2M phase (CD34^+38^−90^+ HSCs [3]; [4]): decreased
